Measured values published in patent publication US20150216865A1, “METHODS OF TREATING A BRUTON'S TYROSINE KINASE DISEASE OR DISORDER” (Celgene Avilomics Research, Inc., priority 2012, published 2015).
Where two headings read alike, the source gives them in different places. Marks after values point to notes of the source that are not given here.

Key:
[1] = test system: IL-6; assay: Inflammatory chemokine and cytokine analysis in CIA mice, IL-6; type: in vivo, mouse
Excerpt: Inflammatory Chemokine and Cytokine Analysis: At the termination of the CIA study, mice were sacrificed and blood was harvested via cardiac punch using EDTA as an anticoagulant. […] Levels of various mouse cytokines in plasma were quantified using Bioplex® Suspension Array System according to manufacturer's instruction (BioRad, mTNFa (171-G5023M), mIL-6 (171-G5007M), mKC (171-G5018M), mIFNg (171-G5017M), mIL-17 (Z60-00006Z2), mIL-1β (171-G5002M), mMCP-1 (171-G5019M).

[2] = test system: male NOD mice; assay: NOD mouse model, salivary gland histopathology; type: in vivo; conditions: 20 weeks of age
Excerpt: Histopathology. Samples of lachrymal gland and salivary glands from all animals were fixed for Haematoxylin & Eosin histological analysis. Sections were inspected blind by a qualified histopathologist and scored for signs of pathology according to a semi-quantitative scoring system. This system is based on the mean number of inflammatory foci comprising 50 or more mononuclear inflammatory cells per objective field. The ratio of infiltrated to normal glandular tissue was expressed on a five point scale.
(i) Focus Score. The mean number of inflammatory foci comprising ≧50 mononuclear inflammatory cells per ×10 objective field was counted. Five such fields were assessed (where possible) to derive this index and these are selected to contain the maximum number of such foci. Where the overall area of the tissue section was less than five fields, the number of ×10 objective fields was recorded and used to determine the focus score. (ii) Area Score. The ratio of infiltrated to normal glandular tissue was expressed on a five point scale: • 0: No infiltrates • 1: 0-25% of the tissue section infiltrated • 2: 26-50% of the tissue section infiltrated • 3: 51-75% of the tissue section infiltrated • 4: 76-100% of the tissue section infiltrated
Salivary Gland Histopathology. […] Sections were examined and scored for two criteria: Focus Score and Area Score as outlined above.

[3] = test system: collagen-induced arthritis Dba1 mouse model; assay: Established collagen induced arthritis model (clinical score, histopathology, body weight); type: in vivo; conditions: for reduction of clinical signs of disease (inhibition of disease): established CIA
Description: Established Collagen Induced Arthritis Model: Experiments were carried out at Bolder Biopath, Boulder, Colo. All experiments were carried out in compliance with regulations of the Institutional Animal Care and Use Committee and were conducted in accordance with principles and procedures dictated by the highest standards of humane animal care. […] On study days 25-27, onset of arthritis occurred, and mice were randomized into treatment groups (10/treatment group, 4/group for normal). […] Randomization into each group was done after swelling was obviously established in at least one paw, and attempts were made to assure approximately equal mean scores across the groups at the time of enrollment. […] Treatment continued daily (QD at 24 h intervals) through arthritis day 14.

[4] = Solubility; type: physicochemical
[5] = molecular target: T1, Btk (Mus musculus, UniProt P35991); assay: Btk occupancy in spleen lysates of CIA mice; type: in vivo
T1 construct: from tissue; host or cells: mouse spleen
Description: Spleen Homogenization: Spleens were harvested from mice, frozen immediately in liquid nitrogen and stored at −80° C. To generate spleen lysates, each spleen was sliced in half and lysed using a Precellys 24 Bead Homogenizer in 500 μL of BioRad Bio-Plex Lysis Buffer plus protease inhibitors. Supernatant was transferred to a fresh microfuge tube and stored frozen at −80° C. until analysis.
Btk Target Site Occupancy ELISA: An ELISA method for the detection of free uninhibited Btk in mouse, rat, dog, monkey, and human lysates was developed at Celgene Avilomics Research and a validation of this method in human B cell lysate was performed by a CLIA Certified laboratory (Cambridge Biomedical Laboratories, Boston, Mass.) The parameters that were assessed included: accuracy, linearity, dilution, precision (intra and inter-assay), stability, reference range, freeze-thaw cycles, reportable range, specificity, sensitivity, and carryover. […] Standards and samples were transferred to a streptavidin-coated 96-well ELISA plate and mixed while shaking for 1 h at room temperature. […] After wash, goat α-mouse-HRP (1:5000 dilution in PBS+0.05% Tween-20+0.5% BSA) was added and incubated for 1 h at room temperature. The ELISA was developed with addition of tetramethyl benzidine (TMB) followed by Stop Solution and read at OD 450 nm.
Established Collagen Induced Arthritis Model: Experiments were carried out at Bolder Biopath, Boulder, Colo. All experiments were carried out in compliance with regulations of the Institutional Animal Care and Use Committee and were conducted in accordance with principles and procedures dictated by the highest standards of humane animal care. Dba1 mice were injected at the base of the tail with 150 μL of Freund's Complete Adjuvant (Sigma) containing bovine type II collagen (Elastin Products, Owensville, Mo.) (2 mg/ml) on day 0 and again on day 21. […] Randomization into each group was done after swelling was obviously established in at least one paw, and attempts were made to assure approximately equal mean scores across the groups at the time of enrollment. […] Treatment continued daily (QD at 24 h intervals) through arthritis day 14. […] Clinical scores were assessed for each of the paws on study arthritis days 1-15 using the following scoring system: 0=normal, 1=one hind or fore paw joint affected or minimal diffuse erythema and swelling, 2=two hind or fore paw joints affected or mild diffuse erythema and swelling, 3=three hind or fore paw joints affected or moderate diffuse erythema and swelling, 4=marked diffuse erythema and swelling or =four digit joints affected, 5=severe diffuse erythema and severe swelling entire paw, unable to flex digits.

T1 sequence (P35991 whole entry): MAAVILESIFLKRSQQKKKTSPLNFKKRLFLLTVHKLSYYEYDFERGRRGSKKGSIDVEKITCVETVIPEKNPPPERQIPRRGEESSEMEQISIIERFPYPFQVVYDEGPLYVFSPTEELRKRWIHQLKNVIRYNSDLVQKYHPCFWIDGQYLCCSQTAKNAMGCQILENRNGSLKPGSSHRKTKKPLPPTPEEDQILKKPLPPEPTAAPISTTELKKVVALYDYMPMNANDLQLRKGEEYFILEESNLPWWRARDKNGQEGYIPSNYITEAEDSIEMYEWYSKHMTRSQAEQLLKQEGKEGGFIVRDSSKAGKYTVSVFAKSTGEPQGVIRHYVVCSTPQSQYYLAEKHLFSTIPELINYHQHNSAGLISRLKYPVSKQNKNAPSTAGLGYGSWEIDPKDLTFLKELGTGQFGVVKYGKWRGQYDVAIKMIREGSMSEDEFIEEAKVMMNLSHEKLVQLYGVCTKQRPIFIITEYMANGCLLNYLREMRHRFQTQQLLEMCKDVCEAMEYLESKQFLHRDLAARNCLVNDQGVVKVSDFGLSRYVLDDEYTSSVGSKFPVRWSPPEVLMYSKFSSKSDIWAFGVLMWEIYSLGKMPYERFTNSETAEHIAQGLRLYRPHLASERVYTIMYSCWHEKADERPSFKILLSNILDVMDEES

C=CC(=O)Nc1cccc(Nc2nc(Nc3ccc(OCCOC)cc3)ncc2F)c1 [Compound 1 besylate, N-(3-(5-fluoro-2-(4-(2-methoxyethoxyl)phenylamino)pyrimidin-4-ylamino)phenyl)acrylamide besylate]
IL-6 mean ([1]; 3 mg/kg): 15.4 pg/mL
IL-6 mean ([1]; 10 mg/kg): 9.1* pg/mL
IL-6 mean ([1]; 30 mg/lkg): 10.5* pg/mL
salivary gland Area Score (proportion of infiltrated glandular tissue) vs vehicle [2]: did not reduce
salivary gland Focus Score (number of inflammatory foci) vs vehicle [2]: did not reduce
reduction of clinical signs of disease (inhibition of disease) ([3]; 3 mg/kg PO QD): 50%
reduction of clinical signs of disease (inhibition of disease) ([3]; 10 mg/kg PO QD): 85%
inhibition of histopathologic signs of disease (six joints) ([3]; 30 mg/kg): 96%
reduction of clinical signs of disease (inhibition of disease) ([3]; 30 mg/kg PO QD): 95%
body weight loss associated with severity of disease ([3]; all three dose levels (3, 10, 30 mg/kg)): prevented the loss in body weight
solubility ([4]; aqueous solution, aqueous buffer, approximately pH 3.0, read-out: maximum aqueous solubility): 400 µg/mL
solubility ([4]; ethanol, organic solvent or mixture, read-out: solubility in ethanol): ~10000 µg/mL
solubility ([4]; water, read-out: solubility in water): ~160 µg/mL
Btk occupancy in spleen ([5]; 30 mg/kg, 2 hours after last dose, besylate): 95%
drug-free Btk protein re-synthesized, % of pre-dose levels ([5]; 24 hours after a 10 mg/kg dose): approximately 60%
Btk occupancy in spleen ([5]; 24 hours after the 3 mg dose): 19%
Btk occupancy in spleen ([5]; 24 hours, dose level 10 mg): > 40%
Btk occupancy in spleen ([5]; 24 hours, dose level 30 mg): > 40%
receptor occupancy at 3 mg/kg ([5]; mouse, 3 mg/kg, 2 hours after last dose): 34%
receptor occupancy at 10 mg/kg ([5]; mouse, 10 mg/kg, 2 hours after last dose): 84%
receptor occupancy at 30 mg/kg ([5]; mouse, 30 mg/kg, 2 hours after last dose): 97%
